Experimental findings from ChEMBL document CHEMBL4219212, “Synthesis of 3-(3-hydroxyphenyl)pyrrolidine dopamine D3 receptor ligands with extended functionality for probing the secondary binding pocket” (Bioorg Med Chem Lett, 2018) are described below.

One assay addresses D(1A) dopamine receptor (Homo sapiens, UniProt P21728). The assay is described as follows: Displacement of [3H]SCH23390 from human dopamine D1 receptor expressed in HEK293T cell membranes by radioligand binding assay. (In general: Loss of bound radioactivity is the signal in a displacement assay; it reports binding, not function.)
Assay [1] deals with T1, 5-hydroxytryptamine receptor 1A (Homo sapiens, UniProt P08908).
T1 sequence (P08908 whole entry): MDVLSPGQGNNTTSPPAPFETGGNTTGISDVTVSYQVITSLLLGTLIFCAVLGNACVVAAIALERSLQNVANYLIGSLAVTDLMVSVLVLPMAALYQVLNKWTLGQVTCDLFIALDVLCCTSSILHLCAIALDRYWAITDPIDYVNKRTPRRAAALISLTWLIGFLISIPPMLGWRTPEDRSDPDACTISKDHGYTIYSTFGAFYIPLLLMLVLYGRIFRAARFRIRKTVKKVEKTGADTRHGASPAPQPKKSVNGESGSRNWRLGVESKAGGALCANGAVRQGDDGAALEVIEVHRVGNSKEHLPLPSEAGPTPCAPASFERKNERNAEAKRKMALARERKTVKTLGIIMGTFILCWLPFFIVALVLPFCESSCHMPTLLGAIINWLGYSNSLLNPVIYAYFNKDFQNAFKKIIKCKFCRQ
The assay is described as follows: Displacement of [3H]-Way100635 from 5HT1A receptor (unknown origin) expressed in stable CHO cell membranes by radioligand binding assay.

For a further assay, the target named is D(2) dopamine receptor (Homo sapiens, UniProt P14416). The assay is described as follows: Binding affinity to human dopamine D2 receptor.
Chain of D(2) dopamine receptor (P14416 whole entry): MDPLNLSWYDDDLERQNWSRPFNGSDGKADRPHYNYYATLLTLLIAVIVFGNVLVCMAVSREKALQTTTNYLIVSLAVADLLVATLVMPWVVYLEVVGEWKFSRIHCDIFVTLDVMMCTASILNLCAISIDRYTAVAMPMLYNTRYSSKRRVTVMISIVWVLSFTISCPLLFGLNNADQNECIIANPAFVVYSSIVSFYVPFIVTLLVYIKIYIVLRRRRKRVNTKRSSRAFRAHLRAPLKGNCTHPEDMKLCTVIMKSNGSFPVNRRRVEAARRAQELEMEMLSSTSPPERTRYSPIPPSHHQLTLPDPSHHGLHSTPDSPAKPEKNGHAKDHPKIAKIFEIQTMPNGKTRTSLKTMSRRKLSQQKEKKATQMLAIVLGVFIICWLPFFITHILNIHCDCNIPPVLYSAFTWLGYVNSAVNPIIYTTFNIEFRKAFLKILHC
A further assay addresses D(3) dopamine receptor (Homo sapiens, UniProt P35462). The assay is described as follows: Binding affinity to human dopamine D3 receptor.

Chain of D(1A) dopamine receptor (P21728 whole entry): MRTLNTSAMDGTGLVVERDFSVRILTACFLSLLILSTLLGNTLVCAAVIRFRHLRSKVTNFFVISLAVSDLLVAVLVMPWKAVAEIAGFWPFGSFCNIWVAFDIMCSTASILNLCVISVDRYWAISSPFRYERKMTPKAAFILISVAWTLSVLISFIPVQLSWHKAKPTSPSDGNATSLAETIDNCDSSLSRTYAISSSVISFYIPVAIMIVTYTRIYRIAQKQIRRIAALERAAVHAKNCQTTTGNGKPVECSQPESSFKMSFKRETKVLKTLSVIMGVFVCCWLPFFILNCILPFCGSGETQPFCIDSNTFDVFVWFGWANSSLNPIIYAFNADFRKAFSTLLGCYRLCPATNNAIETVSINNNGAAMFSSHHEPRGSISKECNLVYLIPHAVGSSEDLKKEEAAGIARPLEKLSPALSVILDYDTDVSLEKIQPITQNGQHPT
Chain of D(3) dopamine receptor (P35462 whole entry): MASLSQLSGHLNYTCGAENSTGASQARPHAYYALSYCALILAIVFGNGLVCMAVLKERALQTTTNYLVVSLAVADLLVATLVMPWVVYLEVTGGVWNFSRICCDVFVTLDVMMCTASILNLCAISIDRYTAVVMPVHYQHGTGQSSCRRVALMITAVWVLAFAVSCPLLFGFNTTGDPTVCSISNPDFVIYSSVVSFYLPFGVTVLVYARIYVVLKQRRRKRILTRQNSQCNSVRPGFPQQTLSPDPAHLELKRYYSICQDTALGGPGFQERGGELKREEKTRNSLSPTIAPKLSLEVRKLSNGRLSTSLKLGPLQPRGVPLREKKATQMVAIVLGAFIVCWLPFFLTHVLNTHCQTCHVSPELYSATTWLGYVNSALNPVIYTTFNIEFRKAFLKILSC

As a reminder, the Ki is the equilibrium dissociation constant of an inhibitor or competing ligand from its target. Lower therefore signals a stronger hold on the target. Regarding `CN(C)c1ccc(C(=O)NCCCCN2CCC(c3cccc(O)c3)C2)cc1` (single isomer, unassigned; (-)), the affinity at D(1A) dopamine receptor, expressed as Ki, was 4590 nM.

With `CCCCCCCCCCN1CCC(c2cccc(O)c2)C1` (stereo not drawn), the Ki stood at 12 nM in assay [1] and 128 nM at D(1A) dopamine receptor.

For the compound `CCCN1CCC(c2cccc(O)c2)C1` (stereo not drawn), the Ki turned out to be 68 nM at D(2) dopamine receptor and 52 nM at D(3) dopamine receptor.

In turn, `CN(C)c1ccc(C(=O)NCCCCN2CCC(c3cccc(O)c3)C2)cc1` (racemic) yielded a Ki at D(1A) dopamine receptor of 831 nM. This counts as sub-micromolar.

`CCCCN1CCC(c2cccc(O)c2)C1` (stereo not drawn): the Ki in assay [1] was 1810 nM; at D(1A) dopamine receptor, 861 nM.

As to `CCCCCCCCCN1CCC(c2cccc(O)c2)C1` (racemic), the Ki in assay [1] worked out at 15 nM; on D(1A) dopamine receptor, 174 nM.

As for `CCCCCN1CCC(c2cccc(O)c2)C1` (stereo not drawn), the Ki in assay [1] came out at 326 nM; on D(1A) dopamine receptor, 542 nM.

For the compound `CCCCCCN1CCC(c2cccc(O)c2)C1` (stereo not drawn), the Ki was 272 nM in assay [1] and 1280 nM on D(1A) dopamine receptor.

For `CN(C)c1ccc(C(=O)NCCCCN2CCC(c3cccc(O)c3)C2)cc1` (single isomer, unassigned; (+)), the Ki on D(1A) dopamine receptor is above 10000 nM.

`CCCCCCCCCN1CCC(c2cccc(O)c2)C1` (single isomer, unassigned; (-)): the Ki is 48 nM in assay [1] and 181 nM on D(1A) dopamine receptor.

As for `CCCCCCCCCN1CCC(c2cccc(O)c2)C1` (single isomer, unassigned; (+)), the Ki in assay [1] is 115 nM; at D(1A) dopamine receptor, above 10000 nM.

With `CCCCCCCCN1CCC(c2cccc(O)c2)C1` (stereo not drawn), the Ki was found to be 9.4 nM in assay [1] and 170 nM at D(1A) dopamine receptor.

Consider `CCCCCCCN1CCC(c2cccc(O)c2)C1` (stereo not drawn), for which the Ki stood at 19 nM in assay [1] and 597 nM on D(1A) dopamine receptor.
